Results as given in patent US20180344725A1, “QUINOLONE CHALCONE COMPOUNDS AND USES THEREOF” (priority 2015, published 2018).

What was measured:
[1] = tested on: tubulin (vinblastine binding site); experiment: BODIPY FL vinblastine competition assay; set-up: species or system porcine; details: 25 μM; 5 μM BODIPY FL-vinblastine
From the text: For the vinblastine competition assay, fluorescence was monitored by excitation of the reaction mixture at 490 nm and the emission spectra at the 510-550 nm range.

MDA-MB-231 = experiment: SRB-based cytotoxicity assay; type: cell-based, human; details: for IC50: Homo sapiens, MDA-MB-231, SRB, Table 2; for Cell survival rate: MDA-MB231
Description: (§1) For (anti)proliferation assays, 4,000-5,000 cells/well of the 96-well clustered dish were incubated for 16 hours, as described previously (Hu et al., 2008; Skehan et al., 1990). After 16 hours, culture medium was replaced with fresh medium containing different dilutions of test compounds dissolved in DMSO. Some wells were treated with 100 μl of 10% trichloroacetic acid (TCA) as a negative control and sham (medium with dimethyl sulfoxide; DMSO) treated cells were used as a positive control. After 72 hours post-incubation, medium was removed and cells were fixed with 10% TCA at 4° C. for 1 hour. TCA was removed and cells were washed with cold tap water, and plate was air-dried, followed by addition of 50 μl of 0.4% SRB staining solution to each well. After 30 minutes incubation, SRB staining solution was removed. Cells were washed with 1% acetic acid solution, and then washed with tap water to remove unbound staining solution, followed by air-drying. 200 μl of 10 mM (pH10.5) trizma base buffer was added to each well to solubilise macromolecules. SRB stained macromolecules were determined at a 540 nm wavelength using an automated plate reader (Synergy H4 Hybrid Multi-Mode Microplate Reader, BioTek, Winooski, Vt.). Cell growth (inhibition) was calculated by the following formula:
(§2) % cells proliferation=[(AT−CT)/(ST−CT)]×100
(§3) wherein AT=absorbance of treated cells, CT=absorbance of negative control cells, and ST=absorbance of sham treated cells. IC50 values were calculated from sigmoidal dose-response curves generated by two independent biological replicates, with quadruplicate in each set by using Graph Pad Prism v.5.04 software. […] The combinational index (CI) was calculated as described previously (Chou 2006). If the CI values were less than, equal to or more than 1, it indicates a synergistic, additive or antagonistic effect respectively (Chou 2006). CI values were determined from four independent experiments.

MCF-7 = experiment: SRB-based cytotoxicity assay; type: cell-based, human; details: Homo sapiens, MCF7; MCF-7; SRB; Table 2
Description: as §1, §2, §3

MDA-MB-468 = experiment: SRB-based cytotoxicity assay; type: cell-based, human; details: for IC50: Homo sapiens, MDA-MB-468, SRB, Table 2
Description: as §1, §2, §3

HeLa cells [2] = experiment: Cell cycle analysis by flow cytometry; type: cell-based; details: 6-72 hours
Description: Approximately 1×10^6 cells per plate were seeded and grown overnight. Cells were then treated the next morning with test compounds, and harvested at the scheduled post-treatment times. The cell pellet was collected by centrifugation at 1,100 rpm (Allegra™ X-12 centrifuge, Beckman Coulter, Indianapolis, Ind.), followed by washing the cells twice with PBS, and fixing them with 75% ethanol for 12-24 hours at −20° C. Ethanol was removed by centrifugation at […] (Allegra™ X-12 centrifuge, Beckman Coulter); cells were suspended in PBS and centrifuged again at […] in the same rotor. The PBS was then removed and the cell pellet was resuspended and stained for 1 hour with propidium iodide (PI) staining solution (0.3% nonidet P-40, 100 μg/ml RNase A and 100 μg/ml PI in PBS). The DNA content in the different phases of the cell cycle was analysed by flow cytometry using Beckmann Coulter Cytomics FC500 (Mississauga, ON, Canada). The reversibility of drug effects was determined as follow: HeLa cells treated with a CTR compound for 12 hours were washed twice with 1×PBS, and then released them into pre-warmed drug-free complete medium for scheduled durations. The cells were then examined by confocal microscopy for their morphology or subjected to cell cycle analysis by flow cytometry after cells (DNA) were stained with propidium iodide.

HeLa cells [3] = experiment: Western blotting (PARP cleavage, apoptosis); type: cell-based; details: by 24-hour post-treatment
Description: Exponentially growing cells were collected by centrifugation at 1,100 rpm (Allegra™ X-12 centrifuge, Beckman Coulter) at scheduled time points post-treatment. Cells were washed three times with PBS by centrifugation under the same conditions, followed by cell lysis for 10-15 minutes on ice in 100 μl Lysis buffer (150 mM NaCl, 5 mM EDTA, 1% triton X-100, 10 mM tris pH 7.4, 1 mM PMSF, 5 mM EDTA and 5 mM protease inhibitor). Cell extracts were centrifuged at 11,000 rpm (Allegra™ X-12 centrifuge, Beckman Coulter) for 10 minutes at 4° C. Supernatant was collected and the protein concentration was measured using a BCA assay kit according to the supplier's specifications (Thermo Fisher Scientific, Waltham, Mass.). Cell lysates were then diluted with 2× Iaemmli sample buffer and boiled for 5 minutes at 95-100° C. 30-40 μg protein was loaded on 8% or 10% polyacrylamide gel and resolved by electrophoresis. Proteins were then electronically transferred to a PVDF membrane for 75 minutes at 24 volts, followed by “blocking” with 5% skim milk for 1 hour. Proteins were incubated with primary antibody overnight at 4° C. in 0.1% TBST buffer containing 5% skim milk. The membrane was washed three times with 0.1% TBST buffer and incubated for 1 hour with secondary antibody in TBST buffer containing 5% skim milk. […]

| Structure (SMILES) | binding to the vinblastine binding site on the tubulin [1] | IC50 (MDA-MB-231) [µM] | IC50 (MCF-7) [µM] | IC50 (MDA-MB-468) [µM] | preferentially kill cancer over non-cancer cells (MDA-MB-468; MDA-MB-468 versus MCF-10A) | Cell survival rate (MDA-MB-231; single agent 0.1 μM) | Cell survival rate (MDA-MB-231; single agent 0.2 μM) | Cell survival rate (MDA-MB-231; single agent 0.4 μM) | concentrations that caused mitotic arrest and, eventually, cell death (HeLa cells [2]) [nM] | concentration at which many cells underwent apoptosis (cleavage of PARP) (HeLa cells [3]) [nM] |
| --- | --- | --- | --- | --- | --- | --- | --- | --- | --- | --- |
| COc1ccccc1C(=O)/C=C/c1cc2ccccc2[nH]c1=O [CTR-17, (E)-3-(3-(2-Methoxyphenyl)-3-oxoprop-1-enyl)quinolin-2(1H)-one] | did not bind to the vinblastine binding site | 0.41 ± 0.02 | 0.52 ± 0.17 | 0.15 ± 0.33 | up to 26 times | – | – | – | – | – |
| COc1ccc2[nH]c(=O)c(/C=C/C(=O)c3ccccc3OC)cc2c1 [CTR-20, (E)-6-Methoxy-3-(3-(2-methoxyphenyl)-3-oxoprop-1-enyl) quinolin-2(1H)-one] | did not bind to the vinblastine binding site | 0.12 ± 0.09 | 0.14 ± 0.06 | 0.12 ± 0.02 | – | 70.86 ± 4.17 | 41.07 ± 4.58 | 26.38 ± 4.73 | – | – |
| COc1ccccc1C(=O)/C=C/c1cc2cccc(OC)c2[nH]c1=O [CTR-21, (E)-8-methoxy-3-(3-(2-methoxyphenyl)-3-oxoprop-1-enyl) quinolin-2(1H)-one] | – | – | – | – | – | – | – | – | > 60 | ≥ 15 |
| CCOc1ccccc1C(=O)/C=C/c1cc2ccccc2[nH]c1=O [CTR-32, (E)-3-(3-(2-ethoxyphenyl)-3-oxoprop-1-enyl)quinolin-2(1H)-one] | – | – | – | – | – | – | – | – | > 50 | ≥ 30 |
